System: reserpine induced hypothermia
Assay: reversal of reserpine induced hypothermia test in mice
Type: in vivo

C[C@H]1CCN(C(=O)[C@H](Cc2c[nH]cn2)NC(=O)[C@@H]2CCC(=O)N2)[C@@H]1C(N)=O [Example 1, L-Pyroglutamyl-L-histidyl-trans-3-methyl-L-prolineamide]
calorigenic effect in reversal of reserpine induced hypothermia (fully reserpinised mice, over 4 hours, P < 0.05, Mann Whitney U test): significant | potency relative to TRH (times more potent) (mice, doses 1-30 mg/Kg p.o.): 3-4 time

— patent US4060603A, “Histidine derivatives” (Reckitt & Colman Products Limited, priority 1975, dated 1977)
